# According to US10874687B1 (Atea Pharmaceuticals, Inc., priority 2020, dated 2020):
# “And” between values parts separate entries of the source, which are not always exact repeats. Equal values may be shown once. Read-outs that look alike come from different tables or passages of the source. Marks after values point to notes of the source that are not given here.
# Legend:
# [1] = system: human bronchial epithelial cells
# [2] = system: human nasal epithelial cells
# [3] = system: human bronchial epithelial cells; assay: Triphosphate levels in human bronchial epithelial cells after 8 h exposure and washout; conditions: for Mean Intracellular Compound 1-6 Concentration: bronchial cells, 10 μM Compound 1A for 8 h
# monkey hepatocytes = assay: Triphosphate levels in monkey hepatocytes; assay type: in vitro ADME; conditions: 10 μM Compound 1A
# [4] = Lung, kidney and liver tissue levels in non-human primates after oral Compound 2A; assay type: in vivo, cynomolgus monkeys; conditions: for half-life: after oral Compound 2A 30 mg/kg BID for 3 days; for trough (12 h) tissue level: 12 hours after the last dose of Compound 2A
# Protocol: (This corresponds to 55 ng/g (lung), 57 ng/g (kidney), and 43 ng/g (liver)). […] Plasma tough level of Compound 1-7, the surrogate for Compound 1-6 in plasma, was 39 ng/mL.
# [5] = system: human nasal epithelial cells; assay: Triphosphate levels in human nasal epithelial cells after 8 h exposure and washout
# human hepatocytes = assay: Triphosphate levels in human hepatocytes; assay type: in vitro ADME; conditions: for Mean Intracellular Compound 1-6 Concentration: human hepatocytes, 10 μM Compound 1A
# [6] = Prediction of human tissue levels of triphosphate from monkey tissue levels
# Protocol: Based on the ratio (7.0) of human to monkey concentrations of triphosphate Compound 1-6 as assessed by its in vitro formation in primary hepatocytes, the predicted human tissue level was determined.
# in vivo = conditions: cynomolgus, cynomolgus monkey, po
# [7] = Plasma PK of metabolites in non-human primates after oral Compound 2A; conditions: cynomolgus, cynomolgus monkey, in vivo, 30 mg/kg
# HCoV = assay: Protection of MES-1 cells from virus-induced cytopathogenicity (MTT); assay type: cell-based; conditions: unidentified human coronavirus, 72 h, 50% protection of MES-1 cells, day 3 post-infection
# Protocol: (§1) After a 3-day incubation at 37° C. cell viability was determined by the MTT method as described by Pauwels et al. (J. Virol. Methods 1988, 20, 309-321).
# HCoV-229E [8] = assay: Protection of BHK-21 cells from virus-induced cytopathogenicity (MTT); assay type: cell-based, human coronavirus; conditions: Human coronavirus 229E, read-out: EC50
# Protocol: as §1
# In an initial screening, BHK-21 cells acutely infected with a seasonal human alpha coronavirus, HCoV-229E, were exposed to serial dilutions of Compound 1A. […] No toxicity was detected from either drug.
# (§2) BHK-21 cells: Test compounds were dissolved in DMSO at 100 mM and then diluted in Minimum Essential Medium with Earle's salts (MEM-E) containing 1 mM sodium pyruvate and 25 μg/mL kanamycin, supplemented with 10% FBS (growth medium) to final concentrations of 100, 20, 4 and 0.8 μM (two 24-well replica plates each). After BHK-21 cells were grown to confluency in 96-well plates, growth medium was replaced with fresh maintenance medium (growth medium with 1% inactivated FBS in place of 10% FBS) containing serially diluted test compound and HCoV-229E at a multiplicity of infection (MOI) of 0.01. Uninfected cells in the presence of serially diluted compound were used to assess the cytotoxicity of compounds. After a 3-day incubation at 37° C. in a humidified 5% CO2 atmosphere, cell viability was determined by the MTT method (Pauwels, R et al. J. Virol. Methods 20(4):309-321 (1988)).
# [9] = Cytotoxicity in mock infected BHK-21 cells (MTT); assay type: cell-based, hamster; conditions: hamster
# Protocol: (§3) To determine the cytotoxicity, cells were seeded at an initial density of 1×10^6 cells/mL in 96 well plates containing Minimum Essential Medium with Earles's salts (MEM-E), L-glutamine, 1 mM sodium pyruvate and 25 mg/L kanamycin, supplemented with 10% fetal bovine serum. Cell cultures were then incubated at 37° C. in a humidified 5% CO2 atmosphere in the absence or presence of serial dilutions of test compounds. Cell viability was determined by the MTT method.
# as §2
# mock infected BHK cells = assay: Cytotoxicity in mock infected BHK-21 cells (MTT); assay type: cell-based, hamster; conditions: mock infected BHK cells; MTT; 3 days; Table 2B
# Protocol: as §3, §2
# [10] = Cytotoxicity in mock infected MES-1 cells (MTT); assay type: cell-based; conditions: Table 3A
# Protocol: as §3
# [11] = system: mock infected MES-1 cells; assay: Cytotoxicity in mock infected MES-1 cells (MTT); assay type: cell-based; conditions: 3 days, Table 3B
# Protocol: as §3
# HCV = conditions: HCV-infected subjects, cited from earlier work
# in vitro = conditions: human
# SARS-CoV-2 (WA1) = assay: microbe, parasite or virus in culture; assay type: cell-based; conditions: for EC90: Severe acute respiratory syndrome coronavirus 2, HAE
# Huh-7 cells = conditions: human
# HCoV-229E [12] = assay: microbe, parasite or virus in culture; assay type: cell-based, human coronavirus alpha-229E; conditions: for EC50: Huh-7, read-out: Neutral Red Assay EC50
# [13] = BHK, 72 h, 50% protection of BHK cells, MTT, day 3 post-infection, Table 2A
# [14] = BHK, 72 h, 50% protection of BHK cells, MTT, day 3 post-infection, Table 2B
# [15] = mock infected BHK-21 cells, mock infected BHK cells, MTT, 3 days, Table 2A
# [16] = read-out: Virus Yield Reduction Assay EC90
# [17] = Human coronavirus 229E, Huh-7, read-out: Virus Yield Reduction Assay EC90
smiles,measurement,setting,value
Nc1ccn([C@@H]2O[C@@](CO)(CCl)[C@@H](O)[C@H]2F)c(=O)n1 [ALS-8112],ratio of triphosphate from Compound 1A vs. the named drug,[1],5
same,ratio of triphosphate from Compound 1A vs. the named drug,[2],3
C[C@@]1(F)[C@H](O)[C@@H](COP(=O)(O)OP(=O)(O)OP(=O)(O)O)O[C@H]1n1cnc2c(=O)[nH]c(N)nc21 [Compound 1-6],Mean Intracellular Compound 1-6 Concentration,[3]; 15 h after washout,560 µM
same,Mean Intracellular Compound 1-6 Concentration,[3]; 48 h after washout,290 µM
same,half-life,[3]; intracellular triphosphate in bronchial cells after exposure to 10 μM Compound 1A,39 h
same,half-life,[3]; intracellular triphosphate in bronchial epithelial cells after Compound 1A,over 1.5 days
same,half-life,"[3]; intracellular triphosphate in bronchial epithelial cells after Compound 1A, listed as active triphosphate species",greater than 1.5 days
same,Mean Intracellular Compound 1-6 Concentration,monkey hepatocytes; incubation 2 h,2.1 µM
same,Mean Intracellular Compound 1-6 Concentration,monkey hepatocytes; incubation 4 h,3.1 µM
same,Mean Intracellular Compound 1-6 Concentration,monkey hepatocytes; incubation 8 h,2.9 µM
same,Mean Intracellular Compound 1-6 Concentration,monkey hepatocytes; incubation 24 h,1.7 µM
same,half-life,[4]; monkey kidney tissue,8.0 h
same,trough (12 h) tissue level,[4]; monkey kidney,57 ng/g
same,Mean Intracellular Compound 1-6 Concentration,"[4]; monkey kidney, 12 h post last dose of Compound 2A",0.13 µM
same,Mean Intracellular Compound 1-6 Concentration,"[4]; monkey kidney, 24 h post last dose of Compound 2A",0.032 µM
same,Mean Intracellular Compound 1-6 Concentration,"[4]; monkey kidney, 48 h post last dose of Compound 2A",0.004 µM
same,half-life,[4]; monkey liver tissue,4.3 h
same,trough (12 h) tissue level,[4]; monkey liver,43 ng/g
same,Mean Intracellular Compound 1-6 Concentration,"[4]; monkey liver, 12 h post last dose of Compound 2A",0.09 µM and 0.089 µM
same,Mean Intracellular Compound 1-6 Concentration,"[4]; monkey liver, 24 h post last dose of Compound 2A",0.021 µM
same,Mean Intracellular Compound 1-6 Concentration,"[4]; monkey liver, 48 h post last dose of Compound 2A",Not Detected
same,half-life,[4]; monkey lung tissue,9.4 h
same,trough (12 h) tissue level,[4]; monkey lung,55 ng/g
same,Mean Intracellular Compound 1-6 Concentration,"[4]; monkey lung, 12 h post last dose of Compound 2A",0.14 µM
same,Mean Intracellular Compound 1-6 Concentration,"[4]; monkey lung, 24 h post last dose of Compound 2A",0.037 µM
same,Mean Intracellular Compound 1-6 Concentration,"[4]; monkey lung, 48 h post last dose of Compound 2A",0.009 µM
same,triphosphate concentration in the lung compared to the liver,"[4]; monkey, 12-hour steady-state trough, oral Compound 2A 30 mg/kg BID",1.6 fold
same,half-life,[5]; intracellular triphosphate in nasal cells after exposure to 10 μM Compound 1A,38 h
same,half-life,[5]; intracellular triphosphate in nasal epithelial cells after Compound 1A,over 1.5 days
same,half-life,"[5]; intracellular triphosphate in nasal epithelial cells after Compound 1A, listed as active triphosphate species",greater than 1.5 days
same,Mean Intracellular Compound 1-6 Concentration,"[5]; nasal cells, 10 μM Compound 1A for 8 h, 24 h after washout",170 µM
same,ratio of human to monkey hepatocyte triphosphate concentrations,human hepatocytes; assessed by AUC0-24 values,7 fold and 7.0 fold
same,Mean Intracellular Compound 1-6 Concentration,human hepatocytes; incubation 2 h,14 µM
same,Mean Intracellular Compound 1-6 Concentration,human hepatocytes; incubation 4 h,22 µM
same,Mean Intracellular Compound 1-6 Concentration,human hepatocytes; incubation 8 h,26 µM
same,Mean Intracellular Compound 1-6 Concentration,human hepatocytes; incubation 24 h,17 µM
same,Predicted Intracellular Triphosphate 1-6 Conc. at 12 hours Post-dose,[6],0.62 µM and 0.91 µM and 0.98 µM
same,predicted human lung intracellular level at trough (12 h) relative to in vitro EC90,"[6]; 1100 mg LD + 550 mg BID, EC90 against SARS-CoV-2 in HAE cell cultures",above the in vitro EC90
"C[C@@]1(F)[C@H](O)[C@@H](CO)O[C@H]1n1cnc2c(=O)[nH]c(N)nc21 [Compound 1-7, 2-amino-9-((2R,3R,4R,5R)-3-fluoro-4-hydroxy-5-(hydroxymethyl)-3-methyltetrahydrofuran-2-yl)-1,9-dihydro-6H-purin-6-one]",concentration at 12 h,in vivo,39 ng/mL
same,AUC(0-t),in vivo; 30 mg/kg,0.47 µM·h
same,half-life,in vivo; 30 mg/kg,17 h
same,Cmax,[7],160 nM
same,Tmax,[7],2 h
CNc1nc(N)nc2c1ncn2[C@@H]1O[C@H](CO[P@](=O)(N[C@@H](C)C(=O)OC(C)C)Oc2ccccc2)[C@@H](O)[C@@]1(C)F [Compound 1B],EC50,HCoV; Table 3A,2 µM
same,EC50,HCoV; Table 3B,2.2 µM
same,EC50,HCoV-229E [8]; [13],2.5 µM
same,EC50,HCoV-229E [8]; [14],2.9 µM
same,CC50 at 3 days,[9]; [15],> 100 µM
same,CC50,mock infected BHK cells,> 100 µM
same,CC50 at 3 days,[10],> 100 µM
same,CC50,[11],> 100 µM
CNc1nc(N)nc2c1ncn2[C@@H]1O[C@H](CO[P@@](=O)(N[C@@H](C)C(=O)OC(C)C)Oc2ccccc2)[C@@H](O)[C@@]1(C)F [Compound 2A],efficacy,HCV,high rate of efficacy
same,safety and tolerability,HCV; up to 12 weeks,safe and well-tolerated
"O=c1nc(NO)ccn1[C@@H]1O[C@H](CO)[C@@H](O)[C@H]1O [N^4-hydroxycytidine, reference compound]",CC50,in vitro,> 19 µM
same,Selectivity Index,SARS-CoV-2 (WA1),>5.1
same,EC90,SARS-CoV-2 (WA1); read-out: EC90 of the single replicates,4.7 µM
same,EC90,SARS-CoV-2 (WA1); [16],3.9 µM
"CCN(CC)CCCC(C)Nc1ccnc2cc(Cl)ccc12 (stereo not drawn) [chloroquine, reference compound]",CC50,Huh-7 cells,21 µM
same,EC50,HCoV-229E [12]; Human coronavirus 229E,8.1 µM
same,EC90,HCoV-229E [12]; [17],< 0.05 µM
"CCN(CCO)CCCC(C)Nc1ccnc2cc(Cl)ccc12 (stereo not drawn) [hydroxychloroquine, reference compound]",CC50,Huh-7 cells,26 µM
same,Selectivity Index (CC50/EC50),HCoV-229E [12],3.5^c
same,EC50,HCoV-229E [12]; Human coronavirus 229E,7.4 µM
same,EC90,HCoV-229E [12]; [17],< 0.05 µM
same,EC90,HCoV-229E [12]; [16],< 0.048 µM
"CC(C)OC(=O)[C@H](C)N[P@](=O)(OC[C@H]1O[C@@H](n2ccc(=O)[nH]c2=O)[C@](C)(F)[C@@H]1O)Oc1ccccc1 [sofosbuvir, reference compound]",EC50,HCoV; Table 3A,> 100 µM
same,EC50,HCoV; Table 3B,> 100 µM
same,EC50,HCoV-229E [8]; [13],> 100 µM
same,EC50,HCoV-229E [8]; [14],> 100 µM
same,EC50,"HCoV-229E [8]; BHK-21, HCoV-229E in BHK-21, dye staining, average of 2 experiments, Table 5",> 100 µM
same,CC50 at 3 days,[9]; [15],> 100 µM
same,CC50 at 3 days,"[9]; uninfected BHK-21 cells, BHK-21, Table 5",> 100 µM
same,CC50,mock infected BHK cells,> 100 µM
same,CC50 at 3 days,[10],> 100 µM
same,CC50,[11],> 100 µM
